The values that follow are results of earlier work, collected in patent publication US20120196335A1, “LIGF-TYPE TRANSFORMANTS FOR BIOCONVERSION OF LIGNIN-DERIVED COMPOUNDS” (priority 2010, published 2012).

One series deals with Escherichia coli. Particulars: benzaldehyde derivatives, each alone; cited from earlier work.
`O=Cc1ccc(O)c(O)c1O` [2,3,4-trihydroxybenzaldehyde]: the “antibacterial activity against Escherichia coli” value was “antibacterial activity”.

Consider `O=Cc1cccc(O)c1O` [2,3-dihydroxybenzaldehyde], for which the “antibacterial activity against Escherichia coli” value is reported as “antibacterial activity”.

In the case of `O=Cc1c(O)cc(O)cc1O` [2,4,6-trihydroxybenzaldehyde], the “antibacterial activity against Escherichia coli” value is “antibacterial activity”.

Take `O=Cc1ccc(O)cc1O` [2,4-dihydroxybenzaldehyde]: the “antibacterial activity against Escherichia coli” value is given as “antibacterial activity”.

With `O=Cc1cc(O)ccc1O` [2,5-dihydroxybenzaldehyde], the “antibacterial activity against Escherichia coli” value is given as “antibacterial activity”.

As to `COc1cccc(C=O)c1O` [2-hydroxy-3-methoxybenzaldehyde], the “antibacterial activity against Escherichia coli” value is “antibacterial activity”.

As for `COc1ccc(O)c(C=O)c1` [2-hydroxy-5-methoxybenzaldehyde], the “antibacterial activity against Escherichia coli” value is recorded as “antibacterial activity”.

Regarding `O=Cc1ccccc1O` [2-hydroxybenzaldehyde], the “antibacterial activity against Escherichia coli” value was “antibacterial activity”.

As to `COc1cc(O)cc(OC)c1C=O` [4-hydroxy-2,6-dimethoxybenzaldehyde], the “antibacterial activity against Escherichia coli” value is listed as “antibacterial activity”.

Staying with this series, now noted: each compound alone; known; cited from earlier work.
Regarding `O=Cc1ccc(O)cc1` [4-hydroxybenzaldehyde], the “antimicrobial activity against Escherichia coli” value is given as “antimicrobial activity”.

Take `O=Cc1ccc(CO)o1` [5-hydroxymethylfurfural]: the “antimicrobial activity against Escherichia coli” value is reported as “antimicrobial activity”.

With `O=Cc1ccco1` [furfural], the “antimicrobial activity against Escherichia coli” value was “antimicrobial activity”.

Turning to `COc1cc(C=O)cc(OC)c1O` [syringaldehyde], the “antimicrobial activity against Escherichia coli” value was “antimicrobial activity”.

As for `COc1cc(C=O)ccc1O` [vanillin], the “antimicrobial activity against Escherichia coli” value is reported as “antimicrobial activity”.
